Read-outs that look alike come from different tables or passages of the source.
Molecular target: T1, Androgen Receptor (AR) (Homo sapiens, UniProt P10275, T878A)
T1 construct: endogenous in cells; host or cells: LNCaP
T1 sequence (P10275 1-920 T878A): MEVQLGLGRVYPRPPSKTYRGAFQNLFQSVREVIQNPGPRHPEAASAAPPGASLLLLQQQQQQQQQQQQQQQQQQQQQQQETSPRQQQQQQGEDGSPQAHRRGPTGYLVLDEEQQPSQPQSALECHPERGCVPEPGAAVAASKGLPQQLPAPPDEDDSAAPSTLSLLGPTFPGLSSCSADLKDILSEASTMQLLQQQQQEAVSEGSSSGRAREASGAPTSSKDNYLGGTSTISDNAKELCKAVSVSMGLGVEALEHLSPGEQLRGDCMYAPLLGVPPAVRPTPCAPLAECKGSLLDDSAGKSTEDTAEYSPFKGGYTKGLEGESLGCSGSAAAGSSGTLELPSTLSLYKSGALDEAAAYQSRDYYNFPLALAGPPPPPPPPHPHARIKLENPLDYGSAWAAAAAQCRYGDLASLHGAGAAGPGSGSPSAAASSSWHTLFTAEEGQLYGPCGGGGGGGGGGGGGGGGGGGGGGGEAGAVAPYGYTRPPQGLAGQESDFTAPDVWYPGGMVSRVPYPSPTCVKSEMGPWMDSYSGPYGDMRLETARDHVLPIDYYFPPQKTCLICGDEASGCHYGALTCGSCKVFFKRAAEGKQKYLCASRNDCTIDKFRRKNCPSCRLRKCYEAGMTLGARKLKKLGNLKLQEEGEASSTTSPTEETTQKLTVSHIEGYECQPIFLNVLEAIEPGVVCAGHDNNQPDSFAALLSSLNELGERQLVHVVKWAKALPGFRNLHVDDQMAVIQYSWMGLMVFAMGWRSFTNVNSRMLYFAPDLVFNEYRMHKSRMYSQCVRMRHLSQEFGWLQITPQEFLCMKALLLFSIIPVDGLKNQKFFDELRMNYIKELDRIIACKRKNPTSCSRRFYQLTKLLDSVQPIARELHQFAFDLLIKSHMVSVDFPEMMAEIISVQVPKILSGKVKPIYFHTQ
Experiment: Measurement of AR protein degradation in LNCaP cells by Western blotting
Format: cell-based
Settings: read-out: AR degradation in LNCaP cells (%)
Procedure: The amount of AR protein present in LNCaP or VCaP cells was measured after treating them with the synthesized compound. The amount of AR protein was measured using Western blotting. The protocol for the experiments using LNCaP or VCaP cells was as follows.
[Culture] LNCaP cells were resuspended in RPMI1640 medium + HEPES (Hyclone, SH30255.01), 10% FBS (Hyclone, SV30207.02), and 1% Penicillin-streptomycin (Welgene, LS 202-02). 3 x 10^5 cells/mL were seeded in 12-well plates (1 mL per well) and cultured for 3 days. VCaP cells were resuspended in IMDM MEDIUM (Hyclone, SH30228.01), 20% FBS (Hyclone, SV30207.02), and 1% Penicillin-streptomycin (Welgene, LS 202-02), seeded at 9 x 10^5/mL in 1 mL per 12-well plate, and cultured for 3 days.
[Compound Treatment] 10 µL of 100x stock (e.g., 0.1, 1, 10 µM) compound solution at the final compound treatment concentration (e.g., 0.001, 0.01, 0.1 µM) was added to each well in 1 mL media, and cells were harvested after 20 hours. For DC50 measurement, 100x stock (0.01, 0.1, 1, 10, 100, 1000 µM) compound solutions at the final compound treatment concentration (0.0001, 0.001, 0.01, 0.1, 1, 10 µM) were used.
[Cell lysis] The cell pellet was suspended using 1% SDS lysis buffer (50 mM Tris, 1 mM EDTA, 1% SDS, pH 8.0, 0.5 mM PMSF, 1x Protease/Phosphatase inhibitor Cocktail (Cell Signaling Technology, 5872S)), and sonication (70% AMP, 10 cycles (30 sec ON/59 sec OFF)) was performed. After centrifugation at 4°C and 20,000 g for 20 minutes, the cell lysate was obtained and transferred to a new tube.
[Protein Quantification] A BCA protein assay (SMART™ BCA Protein Assay Kit, iNtRON Biotechnology, 21071) was performed using a 96-well microplate. 5 µL of cell lysate and 5 µL of 1% SDS lysis buffer were added to each well of the 96-well plate, followed by an additional 200 µL of BCA reagent (Reagent A: Reagent B = 50:1). The wells were incubated at 37°C for 30 minutes and cooled to room temperature for 10 minutes. After shaking for 10 seconds, the absorbance was measured at a wavelength of 562 nm. The unknown protein concentration was determined using a BSA standard curve (0, 0.125, 0.25, 0.5, 1, 2 mg/mL). Western blotting samples were prepared by mixing cell lysate, 1% SDS lysis buffer, 4x NuPAGE™ LDS Sample buffer (Invitrogen, NP0008), and 10X NuPAGE™ Sample Reducing Agent (Invitrogen, NP0009) and boiling at 70°C for 10 minutes.
[Electrophoresis] 10 µg of protein sample was loaded into each well of a NuPAGE™ 4 to 12%, Bis-Tris, 1.0 mm Mini Protein Gel, 15-well, 17-well, or 26-well (Invitrogen, NP0323BOX, NP0329BOX, or WG1403BOX) and electrophoresed for 40 minutes using NuPAGE™MES SDS Running Buffer (Invitrogen, NP0002) at 200 V (constant V).
[Transfer] Transfer was performed for 15 or 18 minutes using the electrophoresed gel and the Trans-Blot® Turbo™ Transfer Starter System (Bio-RAD, #17001918, Mini Nitrocellulose) at 1.3 A (constant A) and 25 V (limit V). To confirm protein transfer, 15 mL of Ponceau S solution (Sigma, P7170-1L) was used to stain for 1 minute, and then washed to check the degree of transfer.
[Blocking] The membrane for AR and GAPDH detection was blocked with 5% skim milk/0.2% TBST (Skim milk: BD, 232100/ 20X TBS: Biosesang, TR2008-100-00/ 10% Tween 20 Solution: Bio-RAD, #161-0781) for 45 minutes.
[Antibodies and Detection] Primary AR antibody (Androgen Receptor: CST, 5153S) was mixed with 5% skim milk/0.2% TBST at a ratio of 1:1,000 and reacted at room temperature for 3 hours or at 4°C overnight. Primary GAPDH antibody (CST, 2118S) was mixed with 5% skim milk/0.2% TBST at a ratio of 1:2,000 and reacted at room temperature for 3 hours or at 4°C overnight. Afterwards, TBST (0.2% Tween 20) was used for washing three times every 5 minutes. Secondary antibody to AR antibody, Anti-rabbit IgG, HRP-linked Antibody (CST, 7074S), was mixed with 5% skim milk/0.2% TBST at a ratio of 1:5,000 and reacted at room temperature for 45 minutes. […]

[1] = 10 nM compound, 20 hours, LNCaP cells
[2] = 100 nM compound, 20 hours, LNCaP cells

Structure (SMILES)	Dmax at 0.01 µM (LNCaP, 20 h)	Dmax at 0.1 µM (LNCaP, 20 h)	Dmax at 0.01 µM [1]	Dmax at 0.1 µM [2]
N#Cc1ccc(N2CCC(C(=O)Nc3ccc(OC4CCN(CC5CCN(c6ccc(NC7CCC(=O)NC7=O)cc6F)CC5)CC4)cn3)CC2)cc1C(F)(F)F (stereo not shown) [Example 1, 1-(4-cyano-3-(trifluoromethyl)phenyl)-N-(5-((1-((1-(4-((2,6-dioxopiperidin-3-yl)amino)-2-fluorophenyl)piperidin-4-yl)methyl)piperidin-4-yl)oxy)pyridin-2-yl)piperidine-4-carboxamide]	84%	99%	–	–
N#Cc1ccc(N2CCC(C(=O)Nc3ccc(OC4CCN(CC5CCN(c6ccc(N[C@H]7CCC(=O)NC7=O)cc6F)CC5)CC4)cn3)CC2)cc1C(F)(F)F [Example 2, (S)-1-(4-cyano-3-(trifluoromethyl)phenyl)-N-(5-((1-((1-(4-((2,6-dioxopiperidin-3-yl)amino)-2-fluorophenyl)piperidin-4-yl)methyl)piperidin-4-yl)oxy)pyridin-2-yl)piperidine-4-carboxamide]	86%	99%	–	–
N#Cc1ccc(N2CCC(C(=O)Nc3ccc(OC4CCN(CC5CCN(c6ccc(N[C@@H]7CCC(=O)NC7=O)cc6F)CC5)CC4)cn3)CC2)cc1C(F)(F)F [Example 3, (R)-1-(4-cyano-3-(trifluoromethyl)phenyl)-N-(5-((1-((1-(4-((2,6-dioxopiperidin-3-yl)amino)-2-fluorophenyl)piperidin-4-yl)methyl)piperidin-4-yl)oxy)pyridin-2-yl)piperidine-4-carboxamide]	93%	99%	–	–
N#Cc1ccc(N2CCC(C(=O)Nc3ccc(OC4CCN(CC5CCN(c6ccc(NC7CCC(=O)NC7=O)cc6F)CC5)CC4)nn3)CC2)cc1C(F)(F)F (stereo not shown) [Example 7, 1-(4-cyano-3-(trifluoromethyl)phenyl)-N-(6-((1-((1-(4-((2,6-dioxopiperidin-3-yl)amino)-2-fluorophenyl)piperidin-4-yl)methyl)piperidin-4-yl)oxy)pyridazin-3-yl)piperidine-4-carboxamide]	79%	93%	–	–
N#Cc1ccc(N2CCC(C(=O)Nc3ccc(OC4CCN(CC5CCN(c6ccc(NC7CCC(=O)NC7=O)cc6F)CC5)CC4)cn3)CC2)cc1Cl (stereo not shown) [Example 8, 1-(3-chloro-4-cyanophenyl)-N-(5-((1-((1-(4-((2,6-dioxopiperidin-3-yl)amino)-2-fluorophenyl)piperidin-4-yl)methyl)piperidin-4-yl)oxy)pyridin-2-yl)piperidine-4-carboxamide]	91%	98%	–	–
N#Cc1ccc(N2CCC(C(=O)Nc3ccc(OC4CCN(CC5CCN(c6ccc(N[C@H]7CCC(=O)NC7=O)cc6F)CC5)CC4)cn3)CC2)cc1Cl [Example 9, (S)-1-(3-chloro-4-cyanophenyl)-N-(5-((1-((1-(4-((2,6-dioxopiperidin-3-yl)amino)-2-fluorophenyl)piperidin-4-yl)methyl)piperidin-4-yl)oxy)pyridin-2-yl)piperidine-4-carboxamide]	86%	96%	–	–
N#Cc1ccc(N2CCC(C(=O)Nc3ccc(OC4CCN(CC5CCN(c6ccc(N[C@@H]7CCC(=O)NC7=O)cc6F)CC5)CC4)cn3)CC2)cc1Cl [Example 10, (R)-1-(3-chloro-4-cyanophenyl)-N-(5-((1-((1-(4-((2,6-dioxopiperidin-3-yl)amino)-2-fluorophenyl)piperidin-4-yl)methyl)piperidin-4-yl)oxy)pyridin-2-yl)piperidine-4-carboxamide]	90%	99%	–	–
N#Cc1ccc(N2CCC(C(=O)Nc3ccc(OC4CCN(CC5CCN(c6ccc(NC7CCC(=O)NC7=O)cc6F)CC5)CC4)cn3)CC2)c(F)c1Cl (stereo not shown) [Example 12, 1-(3-chloro-4-cyano-2-fluorophenyl)-N-(5-((1-((1-(4-((2,6-dioxopiperidin-3-yl)amino)-2-fluorophenyl)piperidin-4-yl)methyl)piperidin-4-yl)oxy)pyridin-2-yl)piperidine-4-carboxamide]	88%	96%	–	–
COc1cc(N2CCC(C(=O)Nc3ccc(OC4CCN(CC5CCN(c6ccc(NC7CCC(=O)NC7=O)cc6F)CC5)CC4)cn3)CC2)ccc1C#N (stereo not shown) [Example 13, 1-(4-cyano-3-methoxyphenyl)-N-(5-((1-((1-(4-((2,6-dioxopiperidin-3-yl)amino)-2-fluorophenyl)piperidin-4-yl)methyl)piperidin-4-yl)oxy)pyridin-2-yl)piperidine-4-carboxamide]	–	–	91%	99%
N#Cc1ccc(N2CCC(C(=O)Nc3ccc(OC4CCN(CC5CCN(c6ccc(NC7CCC(=O)NC7=O)cc6F)CC5)CC4)nn3)CC2)c(F)c1Cl (stereo not shown) [Example 15, 1-(3-chloro-4-cyano-2-fluorophenyl)-N-(6-((1-((1-(4-((2,6-dioxopiperidin-3-yl)amino)-2-fluorophenyl)piperidin-4-yl)methyl)piperidin-4-yl)oxy)pyridazin-3-yl)piperidine-4-carboxamide]	88%	90%	–	–
COc1cc(N2CCC(C(=O)Nc3ccc(OC4CCN(CC5CCN(c6ccc(NC7CCC(=O)NC7=O)cc6F)CC5)CC4)nn3)CC2)ccc1C#N (stereo not shown) [Example 16, 1-(4-cyano-3-methoxyphenyl)-N-(6-((1-((1-(4-((2,6-dioxopiperidin-3-yl)amino)-2-fluorophenyl)piperidin-4-yl)methyl)piperidin-4-yl)oxy)pyridazin-3-yl)piperidine-4-carboxamide]	–	–	93%	98%

From EP4772505A1, “COMPOUND FOR DEGRADING ANDROGEN RECEPTOR AND MEDICAL USE THEREOF” (Ubix Therapeutics, Inc., priority 2023, dated 2025)
